Test results: ChEMBL document CHEMBL1932988, “Synthesis, antimicrobial, anticancer evaluation and QSAR studies of 6-methyl-4-[1-(2-substituted-phenylamino-acetyl)-1H-indol-3-yl]-2-oxo/thioxo-1,2,3,4-tetrahydropyrimidine-5-carboxylic acid ethyl esters” (Eur J Med Chem, 2012)
≈ marks a conversion by molar mass, not a printed value.

System: HCT-116
Test: cells
Conditions: Homo sapiens, HCT-116, 72 h
Work on `CCOC(=O)C1=C(C)NC(=S)NC1c1cn(C(=O)CNc2ccc([N+](=O)[O-])cc2C)c2ccccc12` (stereo unspecified) yielded an IC50 of over 1000 µg/mL. In the case of `CCOC(=O)C1=C(C)NC(=O)NC1c1cn(C(=O)CNc2ccccc2[N+](=O)[O-])c2ccccc12` (stereo unspecified), the IC50 is reported as 250 µg/mL (≈ 524 µM). In the case of `CCOC(=O)C1=C(C)NC(=S)NC1c1cn(C(=O)CNc2ccccc2[N+](=O)[O-])c2ccccc12` (stereo unspecified), the IC50 is reported as over 1000 µg/mL. Work on `O=c1[nH]cc(F)c(=O)[nH]1` [FLUOROURACIL] yielded an IC50 of 6 µg/mL (≈ 46.1 µM).

System: Aspergillus niger
Test: Antifungal activity against Aspergillus niger MTCC 8189 after 7 days by tube dilution method hrs followed by subculturing
Format: functional
Conditions: not given
Work on `CCOC(=O)C1=C(C)NC(=S)NC1c1cn(C(=O)CNc2ccc([N+](=O)[O-])cc2C)c2ccccc12` (stereo unspecified) yielded an MFC of over 0.1 uM/ml. With `CCOC(=O)C1=C(C)NC(=O)NC1c1cn(C(=O)CNc2ccccc2[N+](=O)[O-])c2ccccc12` (stereo unspecified) the MFC was over 0.1 uM/ml. `CCOC(=O)C1=C(C)NC(=S)NC1c1cn(C(=O)CNc2ccccc2[N+](=O)[O-])c2ccccc12` (stereo unspecified) showed an MFC of over 0.1 uM/ml.

System: Bacillus subtilis
Test: Antibacterial activity against Bacillus subtilis MTCC 2063 after 24 hrs by tube dilution method
Format: functional
Conditions: not given
With `CCOC(=O)C1=C(C)NC(=S)NC1c1cn(C(=O)CNc2ccc([N+](=O)[O-])cc2C)c2ccccc12` (stereo unspecified) the “-logMIC” value was 1.61. For `CCOC(=O)C1=C(C)NC(=O)NC1c1cn(C(=O)CNc2ccccc2[N+](=O)[O-])c2ccccc12` (stereo unspecified), the “-logMIC” value was 1.58. For `CCOC(=O)C1=C(C)NC(=S)NC1c1cn(C(=O)CNc2ccccc2[N+](=O)[O-])c2ccccc12` (stereo unspecified), the “-logMIC” value was 1.6.

System: Staphylococcus aureus
Test: Ratio of MIC to MBC for Staphylococcus aureus MTCC 2901
Format: functional
Conditions: not given
Work on `CCOC(=O)C1=C(C)NC(=S)NC1c1cn(C(=O)CNc2ccc([N+](=O)[O-])cc2C)c2ccccc12` (stereo unspecified) yielded a Ratio of 3. For `CCOC(=O)C1=C(C)NC(=O)NC1c1cn(C(=O)CNc2ccccc2[N+](=O)[O-])c2ccccc12` (stereo unspecified), the Ratio was 3. In the case of `CCOC(=O)C1=C(C)NC(=S)NC1c1cn(C(=O)CNc2ccccc2[N+](=O)[O-])c2ccccc12` (stereo unspecified), the Ratio is reported as 3.

System: Candida albicans
Test: Antifungal activity against Candida albicans MTCC 227 after 48 hrs by tube dilution method
Format: functional
Conditions: not given
In the case of `CCOC(=O)C1=C(C)NC(=S)NC1c1cn(C(=O)CNc2ccc([N+](=O)[O-])cc2C)c2ccccc12` (stereo unspecified), the “-logMIC” value is reported as 1.61. For `CCOC(=O)C1=C(C)NC(=O)NC1c1cn(C(=O)CNc2ccccc2[N+](=O)[O-])c2ccccc12` (stereo unspecified), the “-logMIC” value was 1.58. With `CCOC(=O)C1=C(C)NC(=S)NC1c1cn(C(=O)CNc2ccccc2[N+](=O)[O-])c2ccccc12` (stereo unspecified) the “-logMIC” value was 1.6.

System: Escherichia coli
Test: Antibacterial activity against Escherichia coli MTCC 1652 after 24 hrs by tube dilution method hrs followed by subculturing
Format: functional
Conditions: not given
`CCOC(=O)C1=C(C)NC(=S)NC1c1cn(C(=O)CNc2ccc([N+](=O)[O-])cc2C)c2ccccc12` (stereo unspecified) showed an MBC of over 0.1 uM/ml. Work on `CCOC(=O)C1=C(C)NC(=O)NC1c1cn(C(=O)CNc2ccccc2[N+](=O)[O-])c2ccccc12` (stereo unspecified) yielded an MBC of over 0.1 uM/ml. `CCOC(=O)C1=C(C)NC(=S)NC1c1cn(C(=O)CNc2ccccc2[N+](=O)[O-])c2ccccc12` (stereo unspecified) gave an MBC of over 0.1 uM/ml.

System: Bacillus subtilis
Test: Antibacterial activity against Bacillus subtilis MTCC 2063 after 24 hrs by tube dilution method hrs followed by subculturing
Format: functional
Conditions: not given
`CCOC(=O)C1=C(C)NC(=S)NC1c1cn(C(=O)CNc2ccc([N+](=O)[O-])cc2C)c2ccccc12` (stereo unspecified) showed an MBC of over 0.1 uM/ml. With `CCOC(=O)C1=C(C)NC(=O)NC1c1cn(C(=O)CNc2ccccc2[N+](=O)[O-])c2ccccc12` (stereo unspecified) the MBC was over 0.1 uM/ml. Compound `CCOC(=O)C1=C(C)NC(=S)NC1c1cn(C(=O)CNc2ccccc2[N+](=O)[O-])c2ccccc12` (stereo unspecified) has an MBC of over 0.1 uM/ml.

System: Candida albicans
Test: Antifungal activity against Candida albicans MTCC 227 after 48 hrs by tube dilution method hrs followed by subculturing
Format: functional
Conditions: not given
For `CCOC(=O)C1=C(C)NC(=S)NC1c1cn(C(=O)CNc2ccc([N+](=O)[O-])cc2C)c2ccccc12` (stereo unspecified), the MFC was over 0.1 uM/ml. Compound `CCOC(=O)C1=C(C)NC(=O)NC1c1cn(C(=O)CNc2ccccc2[N+](=O)[O-])c2ccccc12` (stereo unspecified) has an MFC of over 0.1 uM/ml. `CCOC(=O)C1=C(C)NC(=S)NC1c1cn(C(=O)CNc2ccccc2[N+](=O)[O-])c2ccccc12` (stereo unspecified) gave an MFC of over 0.1 uM/ml.

System: MCF7
Test: cells
Conditions: Homo sapiens, MCF7, 72 h
Description: Cytotoxicity against human MCF7 cells after 72 hrs by MTT assay
Work on `CCOC(=O)C1=C(C)NC(=S)NC1c1cn(C(=O)CNc2ccc([N+](=O)[O-])cc2C)c2ccccc12` (stereo unspecified) yielded an IC50 of 48 µg/mL (≈ 94.6 µM). In the case of `CCOC(=O)C1=C(C)NC(=O)NC1c1cn(C(=O)CNc2ccccc2[N+](=O)[O-])c2ccccc12` (stereo unspecified), the IC50 is reported as 40 µg/mL (≈ 83.8 µM). `CCOC(=O)C1=C(C)NC(=S)NC1c1cn(C(=O)CNc2ccccc2[N+](=O)[O-])c2ccccc12` (stereo unspecified) showed an IC50 of 550 µg/mL (≈ 1110 µM). For `O=c1[nH]cc(F)c(=O)[nH]1` [FLUOROURACIL], the IC50 was 0.67 µg/mL (≈ 5.15 µM).

System: Candida albicans
Test: Ratio of MIC to MFC for Candida albicans MTCC 227
Format: functional
Conditions: not given
With `CCOC(=O)C1=C(C)NC(=S)NC1c1cn(C(=O)CNc2ccc([N+](=O)[O-])cc2C)c2ccccc12` (stereo unspecified) the Ratio was 3. In the case of `CCOC(=O)C1=C(C)NC(=O)NC1c1cn(C(=O)CNc2ccccc2[N+](=O)[O-])c2ccccc12` (stereo unspecified), the Ratio is reported as 3. With `CCOC(=O)C1=C(C)NC(=S)NC1c1cn(C(=O)CNc2ccccc2[N+](=O)[O-])c2ccccc12` (stereo unspecified) the Ratio was 3.

System: Aspergillus niger
Test: Ratio of MIC to MFC for Aspergillus niger MTCC 8189
Format: functional
Conditions: not given
In the case of `CCOC(=O)C1=C(C)NC(=S)NC1c1cn(C(=O)CNc2ccc([N+](=O)[O-])cc2C)c2ccccc12` (stereo unspecified), the Ratio is reported as 3. `CCOC(=O)C1=C(C)NC(=O)NC1c1cn(C(=O)CNc2ccccc2[N+](=O)[O-])c2ccccc12` (stereo unspecified) gave a Ratio of 3. Compound `CCOC(=O)C1=C(C)NC(=S)NC1c1cn(C(=O)CNc2ccccc2[N+](=O)[O-])c2ccccc12` (stereo unspecified) has a Ratio of 3.

System: Aspergillus niger
Test: Antifungal activity against Aspergillus niger MTCC 8189 after 7 days by tube dilution method
Format: functional
Conditions: not given
In the case of `CCOC(=O)C1=C(C)NC(=S)NC1c1cn(C(=O)CNc2ccc([N+](=O)[O-])cc2C)c2ccccc12` (stereo unspecified), the “-logMIC” value is reported as 1.61. With `CCOC(=O)C1=C(C)NC(=O)NC1c1cn(C(=O)CNc2ccccc2[N+](=O)[O-])c2ccccc12` (stereo unspecified) the “-logMIC” value was 1.58. With `CCOC(=O)C1=C(C)NC(=S)NC1c1cn(C(=O)CNc2ccccc2[N+](=O)[O-])c2ccccc12` (stereo unspecified) the “-logMIC” value was 1.6.

System: not listed separately
Test: Partition coefficient, log P of the compound
Format: physicochemical
Conditions: octanol/water
Compound `CCOC(=O)C1=C(C)NC(=S)NC1c1cn(C(=O)CNc2ccc([N+](=O)[O-])cc2C)c2ccccc12` (stereo unspecified) has a logP of 3.34. Work on `CCOC(=O)C1=C(C)NC(=O)NC1c1cn(C(=O)CNc2ccccc2[N+](=O)[O-])c2ccccc12` (stereo unspecified) yielded a logP of 1.48. `CCOC(=O)C1=C(C)NC(=S)NC1c1cn(C(=O)CNc2ccccc2[N+](=O)[O-])c2ccccc12` (stereo unspecified) showed a logP of 2.88.

System: Escherichia coli
Test: Ratio of MIC to MBC for Escherichia coli MTCC 1652
Format: functional
Conditions: not given
Work on `CCOC(=O)C1=C(C)NC(=S)NC1c1cn(C(=O)CNc2ccc([N+](=O)[O-])cc2C)c2ccccc12` (stereo unspecified) yielded a Ratio of 3. Compound `CCOC(=O)C1=C(C)NC(=O)NC1c1cn(C(=O)CNc2ccccc2[N+](=O)[O-])c2ccccc12` (stereo unspecified) has a Ratio of 3. `CCOC(=O)C1=C(C)NC(=S)NC1c1cn(C(=O)CNc2ccccc2[N+](=O)[O-])c2ccccc12` (stereo unspecified) showed a Ratio of 3.

System: Escherichia coli
Test: Antibacterial activity against Escherichia coli MTCC 1652 after 24 hrs by tube dilution method
Format: functional
Conditions: not given
With `CCOC(=O)C1=C(C)NC(=S)NC1c1cn(C(=O)CNc2ccc([N+](=O)[O-])cc2C)c2ccccc12` (stereo unspecified) the “-logMIC” value was 1.61. With `CCOC(=O)C1=C(C)NC(=O)NC1c1cn(C(=O)CNc2ccccc2[N+](=O)[O-])c2ccccc12` (stereo unspecified) the “-logMIC” value was 1.58. In the case of `CCOC(=O)C1=C(C)NC(=S)NC1c1cn(C(=O)CNc2ccccc2[N+](=O)[O-])c2ccccc12` (stereo unspecified), the “-logMIC” value is reported as 1.6.

System: Staphylococcus aureus
Test: Antibacterial activity against Staphylococcus aureus MTCC 2901 after 24 hrs by tube dilution method
Format: functional
Conditions: not given
With `CCOC(=O)C1=C(C)NC(=S)NC1c1cn(C(=O)CNc2ccc([N+](=O)[O-])cc2C)c2ccccc12` (stereo unspecified) the “-logMIC” value was 1.61. For `CCOC(=O)C1=C(C)NC(=O)NC1c1cn(C(=O)CNc2ccccc2[N+](=O)[O-])c2ccccc12` (stereo unspecified), the “-logMIC” value was 1.58. With `CCOC(=O)C1=C(C)NC(=S)NC1c1cn(C(=O)CNc2ccccc2[N+](=O)[O-])c2ccccc12` (stereo unspecified) the “-logMIC” value was 1.3.

System: Staphylococcus aureus
Test: Antibacterial activity against Staphylococcus aureus MTCC 2901 after 24 hrs followed by subculturing
Format: functional
Conditions: not given
In the case of `CCOC(=O)C1=C(C)NC(=S)NC1c1cn(C(=O)CNc2ccc([N+](=O)[O-])cc2C)c2ccccc12` (stereo unspecified), the MBC is reported as over 0.1 uM/ml. Work on `CCOC(=O)C1=C(C)NC(=O)NC1c1cn(C(=O)CNc2ccccc2[N+](=O)[O-])c2ccccc12` (stereo unspecified) yielded an MBC of over 0.1 uM/ml. With `CCOC(=O)C1=C(C)NC(=S)NC1c1cn(C(=O)CNc2ccccc2[N+](=O)[O-])c2ccccc12` (stereo unspecified) the MBC was over 0.1 uM/ml.

System: Bacillus subtilis
Test: Ratio of MIC to MBC for Bacillus subtilis MTCC 2063
Format: functional
Conditions: not given
Work on `CCOC(=O)C1=C(C)NC(=S)NC1c1cn(C(=O)CNc2ccc([N+](=O)[O-])cc2C)c2ccccc12` (stereo unspecified) yielded a Ratio of 3. Work on `CCOC(=O)C1=C(C)NC(=O)NC1c1cn(C(=O)CNc2ccccc2[N+](=O)[O-])c2ccccc12` (stereo unspecified) yielded a Ratio of 3. In the case of `CCOC(=O)C1=C(C)NC(=S)NC1c1cn(C(=O)CNc2ccccc2[N+](=O)[O-])c2ccccc12` (stereo unspecified), the Ratio is reported as 3.
